Experimental data: patent US20220218725A1, “METHODS AND MATERIALS FOR TREATING CANCER” (Mayo Foundation for Medical Education and Research, priority 2019, published 2022)

Columns and labels:
JeKo-1 cells = assay: Cell viability, Annexin V/PI assay (also IC50 and combination index); format: cell-based; conditions: for % viability normalized for respective controls: JeKo-1 (MCL), 48 hours, KPT-330 0.1-1.0 μM, CS 1-3 mM, single agent or combination
Experimental: To assess apoptosis and cellular proliferation, all cell lines were treated with CRM 1 inhibitors (concentration ranging from 0.05-2 μM) and salicylates at concentrations ranging from (0.001-10 mM) for 48 hours before analysis was performed. DMSO was used to substitute the drug in controls.
After 48 hours incubation, cells were washed with Annexin buffer solution and stained with both propidium iodide (PI) and FITC-Annexin V (Life Technologies), and assayed on a BD Accuri flow cytometer (BD Biosciences). Apoptosis results were analyzed with BD CellQuest software. For cell cycle analysis, Jeko-1 cell line was intubated with CRM 1 inhibitors (concentrations ranging from […]) and salicylates (concentration at 3 mM) and Ly-1 cell line was intubated with CRM 1 inhibitors (concentrations ranging from 0.1-2.0 μM) and salicylates (concentration at 0.5-5 mM) for 24 and 48 hours and then fixed with 95% cold ethanol and kept at 4 C° for 24 h and subsequently underwent cell cycle analysis after PI staining and analysis was performed using BD FACS caliber flow cytometer (BD Biosciences) and FlowJo software (Tree Star).
Cell lines were purchased from the cell line repositories ATCC (Manassas, Va.) or DSMZ (Braunschweig, Germany). These included MCL cell lines: JeKo-1, Mino; TCL cell lines: Karpas-299, SR-786; DLBCL cell lines: OCI-Ly1 (LY-1), OCI-Ly3 (LY-3), OCI-Ly19 (LY-19), SU-DHL-6 (DHL-6); MM cell lines: RPMI, U266, OPM2, Xgl, KMS2; ALL cell lines: CRL-1783; non-small cell lung cancer: NCI-H460, A549, HCC827; small cell lung cancer: H1048; sarcoma: Fuji, SW872. Cell lines were cultured according to instruction.
KPT-330 purchased from Selleckchem (cat no: S7252) was dissolved in DMSO while CS (Santa Cruz, Calif.S 2016-36-6), sodium salicylate (Sigma-Aldrich, cat no: S3007), acetyl salicylate (Sigma-Aldrich, cat no: CAS 50-78-2) was diluted in PBS. Ketorolac (Sigma-Aldrich, cat no: 1356665), Bortezomib (Selleckchem, cat no: S1013), gemcitabine (Sigma-Aldrich, cat no: G6423), Leptomycin-B (Sigma-Aldrich, cat no: L2913-2X) and KPT-185 (Selleckchem, cat no: S7125) were dissolved in DMSO. The concentration range of KPT-330 was 0.05-1.0 μM while CS was 1-3 mM were used for ex vivo treatment and incubation time ranged from 24 hours to 72 hours. For the PARP inhibitor assay, olaparib 10 μM (SelleckChem, cat no: AZD2281 Ku-0059436) was used.
The viability assessment for cell lines and primary patients samples were conducted with the Annexin V/PI method.
Jeko-1 and OCI-Ly1 cell lines were used to assess the IC50. Keeping CS at 3 mM, KPT-330 was titrated. Relative IC50 was calculated as described elsewhere (see, e.g., Sebaugh et al., Pharmaceutical statistics 10:128-134 (2011)). The combination index was calculated as described elsewhere (see, e.g., Chou et al., Cancer Res 70:440-446 (2010)).

BCWM cells = assay: Cell viability, Annexin V/PI assay; format: cell-based; conditions: BCWM (WM); 48 hours; KPT-330 0.1-1.0 μM, CS 1-3 mM, single agent or combination
Experimental: (§1) All cell lines were obtained from commercial vendors (ATCC or DSMZ), which includes mantle cell lymphoma (MCL) cell lines: Jeko-1, Mino, JVM-2; T-cell lymphoma (TCL) cell lines: SU-DHL-1, Karpas-299, SR-786 and HUT-78; and diffuse large B-cell lymphoma cell lines: OCI-Ly1, SU-DHL-2, OCI-Ly3, SU-DHL-6; Waldenstrom macroglobulinemia (WM) cell lines: BCWM, MWCL, RPCI; sarcoma cell lines: FUJI, SW872, and pancreatic cancer cell lines: PANC-1.
(§2) WM, TCL, and MCL cell lines were cultured in RPMI media supplemented with 10% fetal bovine serum while DLBCL cell lines were cultured in IMDM media with 10% human serum (Sigma). Pancreatic cancer and sarcoma cell lines were cultured in DMEM with 10% fetal bovine serum. All cell lines were assessed for their viability before use in experiments. Only cells with the viability of 85% or greater were used.

MWCL cells = assay: Cell viability, Annexin V/PI assay; format: cell-based; conditions: MWCL (WM); 48 hours; KPT-330 0.1-1.0 μM, CS 1-3 mM, single agent or combination
Experimental: as §1, §2

Panc-1 cells = assay: Cell viability, Annexin V/PI assay; format: cell-based; conditions: Panc-1 (Pancreatic cancer); 48 hours; KPT-330 0.1-1.0 μM, CS 1-3 mM, single agent or combination
Experimental: as §1, §2

RPCI cells = assay: Cell viability, Annexin V/PI assay; format: cell-based; conditions: RPCI (WM); 48 hours; KPT-330 0.1-1.0 μM, CS 1-3 mM, single agent or combination
Experimental: as §1, §2

MCF7 cells = assay: Cell viability, Annexin V/PI assay; format: cell-based; conditions: MCF7 (Breast cancer); 48 hours; KPT-330 0.1-1.0 μM, CS 1-3 mM, single agent or combination
Experimental: KPT-330 purchased from Selleckchem (cat no: S7252) was dissolved in DMSO while CS (Santa Cruz, Calif.S 2016-36-6), sodium salicylate (Sigma-Aldrich, cat no: S3007), acetyl salicylate (Sigma-Aldrich, cat no: CAS 50-78-2) was diluted in PBS. […] The concentration range of KPT-330 was 0.05-1.0 μM while CS was 1-3 mM were used for ex vivo treatment and incubation time ranged from 24 hours to 72 hours.

[1] = test system: MCL primary patient samples; assay: Viability of primary patient samples, Annexin V/PI assay; format: cell-based, human; conditions: 48 h, KPT-330 0.05-0.5 μM, CS 1-3 mM
Description: (§3) Primary patient samples were obtained. The mononuclear cells were obtained from bone marrow, spleen, peripheral blood and lymph nodes as follows. Freshly obtained tissue (lymph node, spleen, bone marrow) was placed in mesh screen and using a syringe plunger, the tissue was pressed into a petri dish. Samples were then rinsed through the screen using measured amounts of RPMI until all tissue has been pressed through. […] Subsequently the mononuclear cells were isolated via centrifugation in the presence of ficoll and this step was again repeated following washing the cells with RPMI media.
(§4) To isolate peripheral blood mononuclear cells (PBMCs), freshly obtained patient blood sample of patients were centrifuged in the present of ficoll and this step was repeated twice following washing the cells with PBS. Following isolating the mononuclear cells, the viability was assessed and ascertained proper viability above 80% prior to conduct respective experiments. Non-malignant cells were confirmed not to have a malignant condition by pathology review of the tissue.

[2] = test system: MZL primary patient samples; assay: as above; format: cell-based, human; conditions: 48 h, KPT-330 0.05-0.5 μM, CS 1-3 mM
Description: as §3, §4

[3] = Relapsed MCL resistant to Ibrutinib
[4] = Relapsed splenic MZL (sample of r15)
[5] = Relapsed splenic MZL (sample of r16)
[6] = Relapsed splenic MZL (sample of r18)
[7] = Relapssd splenic MZL (sample of r17)

Structure (SMILES) | % viability normalized for respective controls (JeKo-1 cells) | % viability normalized for respective controls (BCWM cells) | % viability normalized for respective controls (MWCL cells) | % viability normalized for respective controls (Panc-1 cells) | % viability normalized for respective controls (RPCI cells) | % viability normalized for respective controls (MCF7 cells) | % viability normalized for respective controls [1, 3] | % viability normalized for respective controls ([1]; Relapsed MCL) | % viability normalized for respective controls ([2]; Relapsed nodal MZL) | % viability normalized for respective controls [2, 4] | % viability normalized for respective controls [2, 5] | % viability normalized for respective controls [2, 6] | % viability normalized for respective controls [2, 7] | IC50 (JeKo-1 cells; Homo sapiens, JeKo-1 (MCL cells), 72 hours, selinexor titrated alone or with CS kept at 3 mM)
C[N+](C)(C)CCO.O=C([O-])c1ccccc1O [CS, choline salicylate] | 93% | 84% | 89% | 90% | 92% | 87% | 91% | 68% | 65% | 63% | 71% | 65% | 82% | –
O=C(/C=C\n1cnc(-c2cc(C(F)(F)F)cc(C(F)(F)F)c2)n1)NNc1cnccn1 [KPT-330, (Z)-3-[3-[3,5-bis (trifluoromethyl)phenyl]-1,2,4-triazol-1-yl]-N′-pyrazin-2-ylprop-2-enehydrazide] | 95% | 69% | 65% | 90% | 63% | 98% | 94% | 89% | 58% | 55% | 67% | 67% | 70% | 1300 nM
